Values after ≈ are worked out from the molar mass of the structure shown. Where two headings read alike, the source gives them in different places.
Assays:
[1] = test system: MRSA ATCC 33592; experiment: MIC, broth microdilution; type: cell-based; details: Staphylococcus aureus
Procedure: (§1) Bacteria were cultured in cation-adjusted Mueller Hinton Broth (for strains in Tables 1 and 4) or Brain Heart Infusion broth (for Enterococcus faecium) or Tryptic Soy Broth (all other bacteria) in a 96-well plate at 37° C. for at least 20 hours. The MIC was classified as the lowest concentration where no visual growth of bacteria was observed. The minimum bactericidal concentration (MBC) was tested by spotting 4 μL from wells with no growth onto Tryptic Soy Agar (TSA) plates. Plates were incubated at 37° C. for at least 18 hours before recording the MBC.

[2] = test system: E. faecalis; experiment: MIC (Table 5, strain not given); type: cell-based; details: Enterococcus faecalis; E. faecalis (Table 5)
Procedure: as §1

[3] = test system: S. aureus; experiment: MIC (Table 5, strain not given); type: cell-based; details: Staphylococcus aureus; S. aureus (Table 5)
Procedure: as §1

[4] = test system: VRE; experiment: MIC (Table 5, strain not given); type: cell-based; details: Enterococcus; VRE (Table 5)
Procedure: as §1

[5] = test system: Clostridium difficile ATCC BAA 1801; experiment: Clostridium difficile inhibition analysis; type: cell-based; details: for Clostridium difficile inhibition: Table 6, ATCC BAA 1801; for Antibacterial activity: Table 7, C. difficile ATCC BAA 1801
[6] = test system: Clostridium difficile ATCC 9689; experiment: Clostridium difficile inhibition analysis; type: cell-based; details: Table 6, ATCC 9689
[7] = test system: Clostridium difficile ATCC 43255; experiment: Clostridium difficile inhibition analysis; type: cell-based; details: for Clostridium difficile inhibition: Table 6, ATCC 43255; for Antibacterial activity: Table 7, C. difficile ATCC 43255
[8] = test system: C. difficile NR-32883 (P2); experiment: Clostridium difficile inhibition analysis; type: cell-based; details: for Clostridium difficile inhibition: Table 6, P2; for Antibacterial activity: Table 7, C. difficile NR-32883 (P2)
[9] = test system: C. difficile NR-32891 (P13); experiment: Clostridium difficile inhibition analysis; type: cell-based; details: for Clostridium difficile inhibition: Table 6, P13; for Antibacterial activity: Table 7, C. difficile NR-32891 (P13)
[10] = test system: C. difficile NR-32895 (P19); experiment: Clostridium difficile inhibition analysis; type: cell-based; details: for Clostridium difficile inhibition: Table 6, P19; for Antibacterial activity: Table 7, C. difficile NR-32895 (P19)
[11] = test system: C. difficile NR-32904 (P30); experiment: Clostridium difficile inhibition analysis; type: cell-based; details: for Clostridium difficile inhibition: Table 6, P30; for Antibacterial activity: Table 7, C. difficile NR-32904 (P30)
[12] = test system: C. difficile NR-13432 (isolate 6); experiment: Clostridium difficile inhibition analysis; type: cell-based; details: for Clostridium difficile inhibition: Table 6, I6; for Antibacterial activity: Table 7, C. difficile NR-13432 (isolate 6)
[13] = test system: C. difficile NR-13435 (isolate 9); experiment: Clostridium difficile inhibition analysis; type: cell-based; details: for Clostridium difficile inhibition: Table 6, I9; for Antibacterial activity: Table 7, C. difficile NR-13435 (isolate 9)
[14] = test system: Acinetobacter baumannii ATCC 19606; experiment: MIC against Gram-negative pathogens; type: cell-based
Procedure: as §1

[15] = test system: Klebsiella pneumoniae BAA-1706; experiment: MIC against Gram-negative pathogens; type: cell-based
Procedure: as §1

[16] = test system: Pseudomonas aeruginosa ATCC 15442; experiment: MIC against Gram-negative pathogens; type: cell-based
Procedure: as §1

[17] = test system: E. faecalis ATCC 29212; experiment: MIC, broth microdilution; type: cell-based; details: Enterococcus faecalis, ATCC29212
Procedure: as §1

[18] = test system: L. monocytogenes ATCC 19115; experiment: MIC, broth microdilution; type: cell-based; details: Listeria monocytogenes, ATCC19115
Procedure: as §1

[19] = test system: S. aureus ATCC 25923; experiment: MIC, broth microdilution; type: cell-based; details: Staphylococcus aureus, ATCC25923
Procedure: as §1

[20] = test system: VRE (E. faecalis) ATCC 51575; experiment: MIC, broth microdilution; type: cell-based
Procedure: as §1

[21] = test system: MRSA NRS119; experiment: MIC and MBC; type: cell-based, Staphylococcus aureus; details: Staphylococcus aureus
Procedure: as §1

[22] = test system: VISA NRS1; experiment: MIC and MBC; type: cell-based, S. aureus; details: Staphylococcus aureus
Procedure: as §1

[23] = test system: VRSA VRS12; experiment: MIC and MBC; type: cell-based, S. aureus
Procedure: as §1

[24] = test system: E. faecium ATCC; experiment: MIC and MBC; type: cell-based
Procedure: as §1

[25] = test system: MRSA NRS123 (USA400); experiment: MIC and MBC; type: cell-based; details: Staphylococcus aureus
Procedure: as §1

[26] = test system: MRSA NRS384 (USA300); experiment: MIC and MBC; type: cell-based; details: Staphylococcus aureus
Procedure: as §1

[27] = test system: MRSA NRS385 (USA500); experiment: MIC and MBC; type: cell-based; details: Staphylococcus aureus
Procedure: as §1

[28] = test system: MRSA NRS386 (USA700); experiment: MIC and MBC; type: cell-based; details: Staphylococcus aureus
Procedure: as §1

[29] = test system: MRSA NRS387 (USA800); experiment: MIC and MBC; type: cell-based; details: Staphylococcus aureus
Procedure: as §1

C[C@@H]1C[C@H](C)CN(S(=O)(=O)c2ccc(C(=O)Nc3nnc(-c4ccnn4C)o3)cc2)C1 [HSGN-124, 4-(((3S,5R)-3,5-dimethylpiperidin-1-yl)sulfonyl)-N-(5-(1-methyl-1H-pyrazol-5-yl)-1,3,4-oxadiazol-2-yl)benzamide]
MIC ([1]; MRSA ATCC 33592, read-out: MIC): 4 µg/mL (≈ 9 µM)
MIC [2]: 16 µg/mL (≈ 36 µM)
MIC [3]: 8 µg/mL (≈ 18 µM)
MIC [4]: 128 µg/mL (≈ 288 µM)
Clostridium difficile inhibition [5]: 2
Clostridium difficile inhibition [6]: 1
Clostridium difficile inhibition [7]: 1
Clostridium difficile inhibition [8]: 0.5
Clostridium difficile inhibition [9]: 2
Clostridium difficile inhibition [10]: 1
Clostridium difficile inhibition [11]: 2
Clostridium difficile inhibition [12]: 0.5
Clostridium difficile inhibition [13]: 0.5

CN(c1ccccc1)S(=O)(=O)c1ccc(C(=O)Nc2nnc(-c3ccc(C(F)(F)F)cc3)o2)cc1 [HSGN-161, 4-(N-methyl-N-phenylsulfamoyl)-N-(5-(4-(trifluoromethyl)phenyl)-1,3,4-oxadiazol-2-yl)benzamide]
MIC ([1]; MRSA ATCC 33592, read-out: MIC): 0.25 µg/mL (≈ 0.498 µM)
MIC [3]: 0.25 µg/mL (≈ 0.498 µM)
Clostridium difficile inhibition [5]: 1
Clostridium difficile inhibition [6]: 0.5
Clostridium difficile inhibition [7]: 0.5
Clostridium difficile inhibition [8]: 0.5
Clostridium difficile inhibition [9]: 0.5
Clostridium difficile inhibition [10]: 0.5
Clostridium difficile inhibition [11]: 0.5
Clostridium difficile inhibition [12]: 0.5
Clostridium difficile inhibition [13]: 0.5

Colistin [reference compound]
MIC [14]: ≤1 µg/mL
MIC [15]: ≤1 µg/mL
MIC [16]: ≤1 µg/mL

CN[C@H](CC(C)C)C(=O)N[C@H]1C(=O)N[C@@H](CC(N)=O)C(=O)N[C@H]2C(=O)N[C@H]3C(=O)N[C@H](C(=O)N[C@H](C(=O)O)c4cc(O)cc(O)c4-c4cc3ccc4O)[C@H](O)c3ccc(c(Cl)c3)Oc3cc2cc(c3O[C@@H]2O[C@H](CO)[C@@H](O)[C@H](O)[C@H]2O[C@H]2C[C@](C)(N)[C@H](O)[C@H](C)O2)Oc2ccc(cc2Cl)[C@H]1O [Vancomycin, reference compound]
MIC [17]: 2 µg/mL (≈ 1.38 µM)
MIC [18]: 1 µg/mL (≈ 0.69 µM)
MIC [1]: 2 µg/mL (≈ 1.38 µM)
MIC [19]: 2 µg/mL (≈ 1.38 µM)
MIC [20]: > 128 µg/mL
MBC [21]: ≤ 1 µg/mL
MIC [21]: ≤ 1 µg/mL
MBC [22]: 4 µg/mL (≈ 2.76 µM)
MIC [22]: 4 µg/mL (≈ 2.76 µM)
MBC ([23]; Staphylococcus aureus, VRSA): > 128 µg/mL
MIC ([23]; Staphylococcus aureus, VRSA): > 128 µg/mL
MIC ([23]; VRSA VRS12): >128 µg/mL
MIC ([24]; E. faecium ATCC): >128 µg/mL
MBC ([24]; Enterococcus faecium): > 128 µg/mL
MIC ([24]; Enterococcus faecium): > 128 µg/mL
MBC [25]: ≤ 1 µg/mL
MIC [25]: ≤ 1 µg/mL
MBC [26]: ≤ 1 µg/mL
MIC [26]: ≤ 1 µg/mL
MBC [27]: 2 µg/mL (≈ 1.38 µM)
MIC [27]: ≤ 1 µg/mL
MBC [28]: ≤ 1 µg/mL
MIC [28]: ≤ 1 µg/mL
MBC [29]: 2 µg/mL (≈ 1.38 µM)
MIC [29]: 2 µg/mL (≈ 1.38 µM)
Clostridium difficile inhibition [5]: 1
Antibacterial activity [5]: 1
Clostridium difficile inhibition [6]: 0.5
Clostridium difficile inhibition [7]: 1
Antibacterial activity [7]: 1
Clostridium difficile inhibition [8]: 0.5
Antibacterial activity [8]: 0.5
Clostridium difficile inhibition [9]: 0.5
Antibacterial activity [9]: 0.5
Clostridium difficile inhibition [10]: 4
Antibacterial activity [10]: 1
Clostridium difficile inhibition [11]: 0.5
Antibacterial activity [11]: 1
Clostridium difficile inhibition [12]: 1
Antibacterial activity [12]: 0.25
Clostridium difficile inhibition [13]: 2
Antibacterial activity [13]: 1

C[C@@H]1C[C@H](C)CN(S(=O)(=O)c2csc(C(=O)Nc3nnc(-c4ccc(C(F)(F)F)cc4)o3)c2)C1 [HSGN-193, 4-(((3S,5R)-3,5-dimethylpiperidin-1-yl)sulfonyl)-N-(5-(4-(trifluoromethyl)phenyl)-1,3,4-oxadiazol-2-yl)thiophene-2-carboxamide]
MIC ([1]; MRSA ATCC 33592, read-out: MIC): 1 µg/mL (≈ 1.94 µM)
MIC [3]: 0.5 µg/mL (≈ 0.972 µM)
Antibacterial activity [5]: 0.25
Antibacterial activity [7]: 0.25
Antibacterial activity [8]: 0.125
Antibacterial activity [9]: 0.5
Antibacterial activity [10]: 0.25
Antibacterial activity [11]: 0.5
Antibacterial activity [12]: 0.125
Antibacterial activity [13]: 0.125
